What was measured:
[1] = tested on: SN12C; assay: NCI60 antitumor screening; type: cell-based, human; conditions: Homo sapiens; 10 μM single dose; SN12C (renal cancer); read-out: growth inhibition percent (GI%)
[2] = tested on: OVCAR-3; assay: NCI60 antitumor screening; type: cell-based, human; conditions: Homo sapiens; 10 μM single dose; OVCAR-3 (ovarian cancer); read-out: growth inhibition percent (GI%)
[3] = tested on: COLO 205; assay: NCI60 antitumor screening; type: cell-based, human; conditions: Homo sapiens; 10 μM single dose; COLO 205 (colon cancer); read-out: growth inhibition percent (GI%)
[4] = tested on: HOP-92; assay: NCI60 antitumor screening; type: cell-based, human; conditions: Homo sapiens; 10 μM single dose; HOP-92 (non-small cell lung cancer); read-out: growth inhibition percent (GI%)
[5] = tested on: NCI-H23; assay: NCI60 antitumor screening; type: cell-based, human; conditions: Homo sapiens; 10 μM single dose; NCI-H23 (non-small cell lung cancer); read-out: growth inhibition percent (GI%)
[6] = tested on: SR; assay: NCI60 antitumor screening; type: cell-based, human; conditions: Homo sapiens; 10 μM single dose; SR (leukaemia); read-out: growth inhibition percent (GI%)
[7] = tested on: MOLT-4; assay: NCI60 antitumor screening; type: cell-based, human; conditions: Homo sapiens; 10 μM single dose; MOLT-4 (leukaemia); read-out: growth inhibition percent (GI%)
[8] = tested on: EKVX; assay: NCI60 antitumor screening; type: cell-based, human; conditions: Homo sapiens; 10 μM single dose; EKVX (non-small cell lung cancer); read-out: growth inhibition percent (GI%)
[9] = tested on: UACC-257; assay: NCI60 antitumor screening; type: cell-based, human; conditions: Homo sapiens; 10 μM single dose; UACC-257 (melanoma); read-out: growth inhibition percent (GI%)
[10] = tested on: NCI60 cell lines panel; assay: NCI60 antitumor screening, full panel; type: cell-based, human; conditions: Homo sapiens; 10 μM single dose; mean over NCI60 cell lines; read-out: Mean growth inhibition percent (GI%)
In short: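 Percent growth inhibition (GI%) was recorded for each of the NCI60 lines, spanning leukaemia, lung, colon, CNS, melanoma, ovarian, renal, prostate and breast cancers, after exposure to compounds at one concentration, 10 μM.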

[11] = tested on: SF-295; assay: NCI60 antitumor screening; type: cell-based, human; conditions: Homo sapiens; 10 μM single dose; SF-295 (CNS cancer); read-out: growth inhibition percent (GI%)
[12] = tested on: SK-OV-3; assay: NCI60 antitumor screening; type: cell-based, human; conditions: Homo sapiens; 10 μM single dose; SK-OV-3 (ovarian cancer); read-out: growth inhibition percent (GI%)
[13] = tested on: M14; assay: NCI60 antitumor screening; type: cell-based, human; conditions: Homo sapiens; 10 μM single dose; M14 (melanoma); read-out: growth inhibition percent (GI%)
[14] = tested on: SK-MEL-2; assay: NCI60 antitumor screening; type: cell-based, human; conditions: Homo sapiens; 10 μM single dose; SK-MEL-2 (melanoma); read-out: growth inhibition percent (GI%)
[15] = tested on: BT-549; assay: NCI60 antitumor screening; type: cell-based, human; conditions: Homo sapiens; 10 μM single dose; BT-549 (breast cancer); read-out: growth inhibition percent (GI%)
[16] = tested on: HCT-116; assay: NCI60 antitumor screening; type: cell-based, human; conditions: Homo sapiens; 10 μM single dose; HCT-116 (colon cancer); read-out: growth inhibition percent (GI%)
[17] = tested on: KM12; assay: NCI60 antitumor screening; type: cell-based, human; conditions: Homo sapiens; 10 μM single dose; KM12 (colon cancer); read-out: growth inhibition percent (GI%)
[18] = tested on: SK-MEL-28; assay: NCI60 antitumor screening; type: cell-based, human; conditions: Homo sapiens; 10 μM single dose; SK-MEL-28 (melanoma); read-out: growth inhibition percent (GI%)
[19] = tested on: T-47D; assay: NCI60 antitumor screening; type: cell-based, human; conditions: Homo sapiens, T47D; 10 μM single dose; T-47D (breast cancer); read-out: growth inhibition percent (GI%)
[20] = tested on: MDA-MB-231/ATCC; assay: NCI60 antitumor screening; type: cell-based, human; conditions: Homo sapiens; 10 μM single dose; MDA-MB-231/ATCC (breast cancer); read-out: growth inhibition percent (GI%)
[21] = tested on: DU-145; assay: NCI60 antitumor screening; type: cell-based, human; conditions: Homo sapiens, DU-145; read-out: growth inhibition percent (GI%)
[22] = tested on: PC-3; assay: NCI60 antitumor screening; type: cell-based, human; conditions: Homo sapiens; 10 μM single dose; PC-3 (prostate cancer); read-out: growth inhibition percent (GI%)
[23] = tested on: HS 578T; assay: NCI60 antitumor screening; type: cell-based, human; conditions: Homo sapiens; 10 μM single dose; HS 578T (breast cancer); read-out: growth inhibition percent (GI%)

Structure (SMILES) | inhibition at 10 µM [1] [%] | inhibition at 10 µM [2] [%] | inhibition at 10 µM [3] [%] | inhibition at 10 µM [4] [%] | inhibition at 10 µM [5] [%] | inhibition at 10 µM [7] [%] | inhibition at 10 µM [8] [%] | inhibition at 10 µM [9] [%] | inhibition at 10 µM [10] [%] | inhibition at 10 µM [11] [%] | inhibition at 10 µM [12] [%] | inhibition at 10 µM [13] [%] | inhibition at 10 µM [14] [%] | inhibition at 10 µM [15] [%] | inhibition at 10 µM [16] [%] | inhibition at 10 µM [17] [%] | inhibition at 10 µM [18] [%] | inhibition at 10 µM [19] [%] | melting point [°C] | inhibition at 10 µM [21] [%] | further results
N#Cc1c(-c2ccc(F)cc2)nc(SCc2ccccc2)nc1N1CCN(c2ccccc2)CC1 [4m, 2-(Benzylthio)-4-(4-fluorophenyl)-6-(4-phenylpiperazin-1-yl) pyrimidine-5-carbonitrile] | < 10 | < 10 | < 10 | < 10 | < 10 | < 10 | < 10 | < 10 | < 10 | < 10 | < 10 | < 10 | < 10 | < 10 | < 10 | < 10 | < 10 | 15.1 | 165 to 167 | < 10 | inhibition at 10 µM [6]: < 10%; inhibition at 10 µM [20]: < 10%; inhibition at 10 µM [22]: < 10%; inhibition at 10 µM [23]: < 10%
N#Cc1c(-c2ccc(F)cc2)nc(SCc2ccc([N+](=O)[O-])cc2)nc1N1CCN(c2ccccc2)CC1 [4o, 4-(4-Fluorophenyl)-2-((4-nitrobenzyl)thio)-6-(4-phenylpiperazin-1-yl)pyrimidine-5-carbonitrile] | < 10 | < 10 | < 10 | < 10 | < 10 | < 10 | 13.9 | < 10 | < 10 | < 10 | < 10 | < 10 | < 10 | < 10 | < 10 | < 10 | < 10 | < 10 | 165 to 167 | < 10 | inhibition at 10 µM [22]: < 10%; inhibition at 10 µM [23]: < 10%
Cc1ccc(CSc2nc(-c3ccc(F)cc3)c(C#N)c(N3CCN(c4ccccc4)CC3)n2)cc1 [4p, 4-(4-Fluorophenyl)-2-((4-methylbenzyl)thio)-6-(4-phenylpiperazin-1-yl) pyrimidine-5-carbonitrile] | < 10 | < 10 | 12.2 | < 10 | < 10 | < 10 | 20.3 | 14.1 | < 10 | < 10 | < 10 | 11 | 15.1 | < 10 | 15.1 | < 10 | < 10 | 12.3 | 145 to 147 | < 10 | inhibition at 10 µM [22]: 25.1%; inhibition at 10 µM [23]: < 10%

From publication PMC10620772, “Design, synthesis, and biological evaluation of new pyrimidine-5-carbonitrile derivatives as novel anti-cancer, dual EGFR^WT/COX-2 inhibitors with docking studies” (RSC Advances, 2023)
